This note sets out measurements from patent US20230364204A1, “Bioactive Peptides, Compositions, Production Process, and Use of Bioactive Peptides as Anti-Tumoral Agents” (priority 2022, published 2023).

The test system of series [1] is MDA-MB-231 cells implanted in zebrafish larvae. Briefly: Zebrafish xenograft model of MDAMB231 (primary tumor and metastasis). Particulars: 72 h, 3-NantC co-implanted at 75, 100 or 125 mg/mL, Doxorubicin 2.5 µg/mL in embryo water. The class given is in vivo. On the procedure: Transgenic Tg(fli1:EGFP)y1 zebrafish embryos were raised at 28° C. for 48 hours in E3 embryo medium 0.2 mM 1-Phenyl-2-Thiourea aka PTU. […] MDA-MB-231 cells were labeled with Dil red fluorescent dye. Approximately 700 Dil Labeled cancer cells were subcutaneously co-implanted into the perivitelline space of 2 days old larvae ± 3-NantC peptide at […]. Larvae in which tumor cells had been inadvertently injected into circulation or larvae with erroneous implantation of the tumor in the yolk rather than the perivitelline space were excluded from the study. Selected tumor bearing embryos were sorted into experimental groups (20 embryos/group), and pictures of primary tumors were taken right after injection. Doxorubicin treatment was added to embryo water at 2.5 µg/mL according to the study plan. Tumor-bearing embryos were incubated in E3/PTU medium for 72 h at 36° C. After incubation, pictures of the primary tumors and the CVP were taken using a red fluorescent filter. Larvae that died or were lost by other means during the study were excluded from the final analysis.
Images obtained right after implantation (day 0) and after 72 h incubation (day 3) were analyzed by using in-house developed software. Tumor growth regression was calculated and normalized to the negative control group. The number of metastasized cells was counted manually. One-way ANOVA was performed followed by two-tailed Student’s t-test. Definitive outliers were detected using the ROUT method with a Q=1%. Graphs and example images, and experimental data were obtained/analyzed by using GraphPad Prism v9.0.2.

Series [2] in a line: MTT cell viability, mammary benign cells. The class given is cell-based. Particulars: human, MCF10A cells (mammary benign cells), read-out: viable cells (MTT). On the procedure: (§1) For the method of MTT, the cells were plated in 96-well sterile plates for cell culture with a cap at the density of 2 × 10^4 cells/well for treatments lasting 24 h and 1 × 10^4 cells/well for treatments lasting 48 h or more, completing the volume to 100 µL with culture medium. The plates were incubated for 8-16 h in an incubator at 37° C. and 5% CO2. The next day, the treatments were prepared in culture medium, applying 200 µL/well at the desired concentration, and the plates were placed in an incubator at 37° C. and 5% CO2for the duration of treatment. After the treatment period, 20 µL/well of a MTT solution was added in PBS (1×) at a concentration of 5 mg/mL, and the dye was incubated at 37° C. and 5% CO2 for 2.5 h. After incubation with MTT, Formazan salts were solubilized with the addition of 200 µL of dimethylsulfoxide solution (DMSO): isopropanol (3:1) and agitated for at least 15 minutes at room temperature. After complete dissolution of the salts, the absorbance was read in a spectrophotometer at 570 nm with endpoint protocol.
(§2) The calculation of cell viability was performed using the formula: […]
(§3) O.D.: optical density captured by spectrophotometer
(§4) NOTE: The Basal O.D. is the one found in the blank wells.

Series [3] relates to MDAMB231 cells (triple negative). The series is described as follows: MTT cell viability, tumor cells. The class given is cell-based. The procedure: as §1, §2, §3, §4
In order to determine the efficacy (comparison of doses and times for the MDAMB231 cell line) and safety (comparison between the effects on MDAMB231 and HDFa cells) of the peptide SEQ ID 1 - MFYPDSRCRGPSET (C-terminal region of Crotoxin B), named 3-NAntC, the Analysis of Variance (ANOVA) with Bonferroni post-hoc test was applied to the significance of 5% in GraphPad Prism software version 6.0.

As to `COc1cccc2c1C(=O)c1c(O)c3c(c(O)c1C2=O)C[C@@](O)(C(=O)CO)C[C@@H]3O[C@H]1C[C@H](N)[C@H](O)[C@H](C)O1` [Doxorubicin, reference compound], the “decrease of tumor cells (primary tumor)” value in series [1] was “about 35%”.

For “H-AIPFYAFY-OH [Peptide B, [H)-AIPFYAFY-(OH]]”, in series [2], the viability at 48 h is around 85%.

On to “MFYPDSRSRGPSET [SEQ ID 10, 3-NAntC monomer]”, for which, in series [3] (MDAMB231, SEQ IDs 2-10 compared to SEQ ID 1), the “compared efficacy in decreasing MDAMB231 cells' viability (MTT, FIG. 13/14)” value is “interesting antitumor effect”.

As for “[H]-HLLQ FNKMIKFETRKNAIPF-[OH] (N-terminal HLLQ) [Peptide A, peptide derived from the N-terminal region of Crotoxin B, reference compound]”, in series [3] (MDAMB231), the “effect on viability of the tumor cells (MTT), in words” value is reported as “did not decrease the viability”.
